Assay [1] concerns the target CDK7/Cyclin H/MAT1 trimeric complex (Homo sapiens, UniProt P50613). The assay is described as follows: CDK7 kinase assay, Caliper/LabChip EZ Reader (Biortus Biosciences). The note with it: CDK7/Cyclin H/MAT1 10 nM, ATP 2 mM, FAM-CDK7tide 2 μM, 30 min incubation, read-out: CDK7 Inhibition (IC50). In kind it is biochemical. As for the experimental part:
Compounds of the invention were further assayed for CDK7 activity at Biortus Biosciences (Jiangyin, Jiangsu Province, P.R. of China) using a CDK7 kinase assay developed with a Caliper/LabChip EZ Reader (Perkin Elmer, Waltham, Mass.). […] The incubation period was chosen such that the total fraction of phosphorylated peptide product produced was <20% for the uninhibited kinase.

In a further assay the test system is A673 cells. The experiment in a line: Inhibition of proliferation of A673 cells (CyQUANT, 72 hour). Format: cell-based, human. Conditions: 72 hour proliferation. As for the experimental part:
A673 cells are a cell line derived from human muscle Ewing's sarcoma. Representative compounds of the invention were tested at different concentrations (from 4 μM to 126.4 pM; 0.5 log serial dilutions) for their ability to inhibit the proliferation of A673 cells. Known CDK inhibitors flavopiridol and triptolide were used as positive controls. Cells were grown in Dulbecco's Modified Eagle's Medium, +10% FBS+1 mM Sodium Pyruvate. The cells were cultured at 37° C. in a humidified chamber in the presence of 5% CO2. Proliferation assays were conducted over a 72 hour time period. CyQUANT® (Life Technologies, Chicago, Ill. USA) was used to assess the anti-proliferative effects of the compounds following manufacturer's directions and utilizing the reagents supplied with the CyQUANT® kit. In this table, “A” represents an IC50 of less than 500 nM; “B” an IC50 of between 500 nM and 5 μM; and “C” an IC50 of greater than 5 μM.

The target of a further assay is T1, CDK7 (Homo sapiens, UniProt P50613).
T1 construct: purchased Life Technologies (Adapta kinase assay service)
The experiment in a line: CDK7 kinase activity, Adapta kinase assay (Life Technologies). In kind it is biochemical. The note with it: Adapta kinase assay at Life Technologies; 10 μM down to 0.514 nM, 3-fold serial dilutions; read-out: CDK7 Inhibition (IC50). As for the experimental part:
Compounds of the invention were assayed for CDK7 activity at Life Technologies™ (Grand Island, N.Y.) using their commercially available Adapta® kinase assay services. Compounds were tested at concentrations ranging from 10 μM down to 0.514 nM in a series of 3-fold serial dilutions. Details of these assays, including substrates used, are available on the Life Technologies web site (http://www.lifetechnologies.com/us/en/home/life-science/drug-discovery/target-and-lead-identification-and-validation/kinasebiology/kinase-activity-assays.html).

A further assay deals with Jurkat cells. The experiment in a line: Inhibition of proliferation of Jurkat cells (CellTiter-Glo, 72 hour). Format: cell-based, human. Conditions: 10 μM to 316 pM. Here is the method: Jurkat cells are a cell line established from a human T cell leukemia. Representative compounds of the invention were tested at different concentrations (from 10 μM to 316 pM; 0.5 log serial dilutions) for their ability to inhibit the proliferation of Jurkat cells. Known CDK inhibitors flavopiridol and triptolide were used as positive controls. Cells were grown in RPMI 1640+10% FBS+1% Glutamax. The cells were supplemented with FBS (Life Technologies) and 100 U·mL^− penicillin, 100 μg·mL^− streptomycin (Invitrogen) and cultured at 37° C. in a humidified chamber in the presence of 5% CO2. Proliferation assays were conducted over a 72 hour time period. CellTiter-Glo® (Promega Corporation, Madison, Wis. USA) was used to assess the anti-proliferative effects of the compounds following manufacturer's directions and utilizing the reagents supplied with the CellTiter-Glo® kit. In this table, “A” represents an IC50 of less than 500 nM; “B” an IC50 of between 500 nM and 5 μM; and “C” an IC50 of greater than 5 μM.

Broadly, the IC50 is the concentration at which inhibition is half-maximal.

T1 sequence (P50613 whole entry): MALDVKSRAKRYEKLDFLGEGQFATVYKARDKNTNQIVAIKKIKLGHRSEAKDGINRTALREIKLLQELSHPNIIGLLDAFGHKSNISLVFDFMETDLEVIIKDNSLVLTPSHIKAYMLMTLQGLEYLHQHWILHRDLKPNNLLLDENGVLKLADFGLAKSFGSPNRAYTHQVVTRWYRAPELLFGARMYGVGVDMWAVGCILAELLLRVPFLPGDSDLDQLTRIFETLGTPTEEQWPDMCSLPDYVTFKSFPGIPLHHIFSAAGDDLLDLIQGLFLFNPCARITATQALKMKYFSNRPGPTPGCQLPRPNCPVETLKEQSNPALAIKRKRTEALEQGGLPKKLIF
T1 sequence (P51946 whole entry partner): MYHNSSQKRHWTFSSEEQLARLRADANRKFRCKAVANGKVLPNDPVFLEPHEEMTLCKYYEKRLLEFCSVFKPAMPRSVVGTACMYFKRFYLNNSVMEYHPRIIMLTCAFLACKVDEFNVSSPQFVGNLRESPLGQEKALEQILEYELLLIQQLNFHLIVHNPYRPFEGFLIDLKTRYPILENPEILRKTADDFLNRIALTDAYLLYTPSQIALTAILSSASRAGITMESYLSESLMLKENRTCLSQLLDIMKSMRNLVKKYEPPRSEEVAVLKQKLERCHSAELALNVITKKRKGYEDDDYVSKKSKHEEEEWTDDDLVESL
T1 sequence (P51948 whole entry partner): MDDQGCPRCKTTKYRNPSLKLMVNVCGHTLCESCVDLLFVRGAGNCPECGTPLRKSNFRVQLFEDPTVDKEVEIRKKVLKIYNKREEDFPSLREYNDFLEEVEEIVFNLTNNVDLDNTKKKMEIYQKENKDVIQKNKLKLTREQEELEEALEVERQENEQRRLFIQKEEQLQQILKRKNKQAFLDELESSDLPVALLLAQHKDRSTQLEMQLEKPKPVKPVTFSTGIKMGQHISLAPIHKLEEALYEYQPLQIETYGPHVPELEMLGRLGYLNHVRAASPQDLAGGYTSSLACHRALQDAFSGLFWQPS
Sequence of CDK7/Cyclin H/MAT1 trimeric complex (P50613 whole entry): as the sequence (P50613 whole entry) above
Sequence of CDK7/Cyclin H/MAT1 trimeric complex (P51946 whole entry partner): as the sequence (P51946 whole entry partner) above
Sequence of CDK7/Cyclin H/MAT1 trimeric complex (P51948 whole entry partner): as the sequence (P51948 whole entry partner) above

`C=CC(=O)NC1CN(C2CCCC(Nc3ncc(Cl)c(-c4c[nH]c5ccccc45)n3)C2)C1` (mixture of isomers) [Compound 255]: the IC50 in assay [1] is less than 100 nM; in the assay on A673 cells, less than 500 nM.
For `C=CC(=O)NC1CCCN(C2CCCC(Nc3ncc(Cl)c(-c4c[nH]c5ccccc45)n3)C2)C1` (mixture of isomers) [Compound 256] the same measures were less than 100 nM and less than 500 nM.
For `C=CC(=O)NC1CC2CCC(C1)N2C1CCCC(Nc2ncc(Cl)c(-c3c[nH]c4ccccc34)n2)C1` (mixture of isomers) [Compound 259] the same measures were 100 to 1000 nM and less than 500 nM.
Take `C=CC(=O)NC12CC(C(=O)N[C@H]3CCC[C@@H](Nc4ncc(Cl)c(-c5c[nH]c6ccccc56)n4)C3)(C1)C2` (racemic) [Compound 109, N-[(±)-3-{[5-chloro-4-(1H-indol-3-yl)pyrimidin-2-yl]amino}cyclohexyl]-3-(prop-2-enamido)bicyclo[1.1.1]pentane-1-carboxamide]: the IC50 on CDK7 is greater than 1000 nM; in the assay with Jurkat cells (Homo sapiens), less than 500 nM; in the assay on A673 cells (Homo sapiens), less than 500 nM.
In the case of `C=CC(=O)N1CCN(CC2(O)CCC[C@@H](Nc3ncc(Cl)c(-c4c[nH]c5ccccc45)n3)C2)CC1` (single isomer, unassigned) [Compound 187], the values for the IC50 on CDK7, in the assay on Jurkat cells (Homo sapiens) and in the assay on A673 cells (Homo sapiens) were less than 100 nM, less than 500 nM and less than 500 nM, respectively.
`CN(C)C/C=C/C(=O)Nc1cnn(CC2(O)CCC(Nc3ncc(Cl)c(-c4c[nH]c5ccccc45)n3)CC2)c1` (centres unmarked) [Compound 114, (E)-N-(1-((4-(5-chloro-4-(1H-indol-3-yl)pyrimidin-2-ylamino)-1-hydroxycyclohexyl)methyl)-1H-pyrazol-4-yl)-4-(dimethylamino)but-2-enamide]: the IC50 at CDK7 is less than 100 nM; in the assay with Jurkat cells (Homo sapiens) it was greater than 5000 nM; in the assay on A673 cells (Homo sapiens) it was greater than 5000 nM.
On to `C=CC(=O)N[C@@H]1CN[C@H](C(=O)N[C@H]2CCC[C@@H](Nc3ncc(Cl)c(-c4c[nH]c5ccccc45)n3)C2)C1` [Compound 153, (2S,4S)-4-acrylamido-N-((1S,3R)-3-(5-chloro-4-(1H-indol-3-yl)pyrimidin-2-ylamino)cyclohexyl)pyrrolidine-2-carboxamide], for which the IC50 is less than 100 nM on CDK7, less than 500 nM with Jurkat cells (Homo sapiens) and less than 500 nM with A673 cells (Homo sapiens).
With `C=CC(=O)N1CCC(CN(C)[C@H]2CCC[C@@H](Nc3ncc(Cl)c(-c4c[nH]c5ccccc45)n3)C2)CC1` [Compound 167], the figures for the IC50 on CDK7, in the assay with Jurkat cells (Homo sapiens) and in the assay with A673 cells (Homo sapiens) were less than 100 nM, less than 500 nM and less than 500 nM, respectively.
With `C=CC(=O)N1CCN([C@@H]2CCC[C@@H](Nc3ncc(Cl)c(-c4c[nH]c5ccccc45)n3)C2)CC1` [Compound 180], the IC50 on CDK7 was 100 to 1000 nM; in the assay with Jurkat cells it was less than 500 nM; in the assay with A673 cells, less than 500 nM.
Turning to `C=CC(=O)N1CCCC(CNC2CCC(Nc3ncc(Cl)c(-c4c[nH]c5ccccc45)n3)CC2)C1` (centres unmarked) [Compound 190, 1-[3-[[[4-[[5-chloro-4-(1H-indol-3-yl)pyrimidin-2-yl]amino]cyclohexyl]amino]methyl]-1-piperidyl]prop-2-en-1-One], the IC50 at CDK7 is less than 100 nM; with Jurkat cells (Homo sapiens) it was 500 to 5000 nM; with A673 cells (Homo sapiens), less than 500 nM.
For `C=CC(=O)N1CCCC(CN(C(=O)C=C)C2CCC(Nc3ncc(Cl)c(-c4c[nH]c5ccccc45)n3)CC2)C1` (centres unmarked) [Compound 191-1, N-[4-[[5-chloro-4-(1H-indol-3-yl)pyrimidin-2-yl]amino]cyclohexyl]-N-[(1-prop-2-enoyl-3-piperidyl)methyl]prop-2-enamide] the same measures were less than 100 nM, less than 500 nM and 500 to 5000 nM.
`C=CC(=O)N1CCC(NC(=O)N2CCC[C@@H](Nc3ncc(Cl)c(-c4c[nH]c5ccccc45)n3)C2)CC1` [Compound 205]: the IC50 at CDK7 is 100 to 1000 nM; in the assay on Jurkat cells, 500 to 5000 nM; in the assay with A673 cells it was less than 500 nM.
In the case of `O=C(/C=C/CN1CCOCC1)N1CCC(C(=O)N2CC[C@H](Nc3ncc(Cl)c(-c4c[nH]c5ccccc45)n3)C2)CC1` [Compound 211, (S,E)-1-(4-(3-((5-chloro-4-(1H-indol-3-yl)pyrimidin-2-yl)amino)pyrrolidine-1-carbonyl)piperidin-1-yl)-4-morpholinobut-2-en-1-One], the IC50 at CDK7 was 100 to 1000 nM; with Jurkat cells (Homo sapiens), greater than 5000 nM; in the assay on A673 cells (Homo sapiens) it was less than 500 nM.
The matching figures for `C=CC(=O)N1CCC(C(=O)N2CC[C@@H](Nc3ncc(Cl)c(-c4c[nH]c5ccccc45)n3)C2)CC1` [Compound 214, 1-[4-[(3R)-3-[[5-chloro-4-(1H-indol-3-yl)pyrimidin-2-yl]amino]pyrrolidine-1-carbonyl]-1-piperidyl]prop-2-en-1-One]: 100 to 1000 nM, greater than 5000 nM and less than 500 nM.
As for `C=CC(=O)N1CCN(C2CCCC(Nc3ncc(Cl)c(-c4c[nH]c5ccccc45)n3)C2)C(C)C1` (centres unmarked) [Compound 257], the IC50 in assay [1] was 100 to 1000 nM; with A673 cells it was less than 500 nM.
As to `C=CC(=O)Nc1ccc(CN[C@H]2CCC[C@@H](Nc3ncc(Cl)c(-c4c[nH]c5ccccc45)n3)C2)nc1` [Compound 258], the IC50 in assay [1] is less than 100 nM; with A673 cells (Homo sapiens), less than 500 nM.
For `C=CC(=O)N1CCN(C2CCCC(Nc3ncc(Cl)c(-c4c[nH]c5ccccc45)n3)C2)C(C)C1` (centres unmarked) [Compound 260], the IC50 in assay [1] is less than 100 nM; in the assay with A673 cells it was less than 500 nM.
Regarding `O=C(Nc1cccc(Nc2ncc(Cl)c(-c3c[nH]c4ccccc34)n2)c1)[C@@H]1CCCNC1` [Compound 1004, (3R)—N-(3-(5-chloro-4-(1H-indol-3-yl)pyrimidin-2-ylamino)phenyl)piperidine-3-carboxamide], the IC50 was less than 100 nM on CDK7 and 500 to 5000 nM in the assay with Jurkat cells (Homo sapiens).
The matching figures for `O=C(Nc1cccc(Nc2ncc(Cl)c(-c3c[nH]c4ccccc34)n2)c1)[C@H]1CCCNC1` [Compound 1005, (3S)—N-(3-(5-chloro-4-(1H-indol-3-yl)pyrimidin-2-ylamino)phenyl)piperidine-3-carboxamide]: less than 100 nM and 500 to 5000 nM.
Regarding `O=C(Nc1cccc(Nc2ncc(Cl)c(-c3c[nH]c4ccccc34)n2)c1)C1CCNCC1` [Compound 1006, N-(3-(5-chloro-4-(1H-indol-3-yl)pyrimidin-2-ylamino)phenyl)piperidine-4-carboxamide], the IC50 was less than 100 nM on CDK7 and 500 to 5000 nM with Jurkat cells (Homo sapiens).
For `Nc1ccc(C(=O)N[C@H]2CCC[C@@H](Nc3ncc(Cl)c(-c4c[nH]c5ccccc45)n3)C2)nc1` [Compound 1007, 5-amino-N-((1S,3R)-3-(5-chloro-4-(1H-indol-3-yl)pyrimidin-2-ylamino)cyclohexyl)picolinamide] the same measures were less than 100 nM and 500 to 5000 nM.
Turning to `C=CC(=O)N1CCC(CNC2CCC(Nc3ncc(Cl)c(-c4c[nH]c5ccccc45)n3)CC2)CC1` (centres unmarked) [compound 163], the IC50 on CDK7 is less than 100 nM; in the assay with Jurkat cells, less than 500 nM; in the assay with A673 cells, less than 500 nM.
For `C=CC(=O)N1CCC(CNC2CCC(Nc3ncc(Cl)c(-c4c[nH]c5ccccc45)n3)CC2)CC1` (centres unmarked) [compound 184], the values for the half-inhibitory concentration (IC50) on CDK7, in the assay with Jurkat cells and in the assay with A673 cells were 100 to 1000 nM, greater than 5000 nM and greater than 5000 nM, respectively.
For the compound `CN(C)CC=CC(=O)N1CCC(CNC2CCC(Nc3ncc(Cl)c(-c4c[nH]c5ccccc45)n3)CC2)CC1` (centres unmarked) [compound 196], the IC50 at CDK7 was less than 100 nM; in the assay on Jurkat cells, 500 to 5000 nM.
Turning to `CN(C)CC=CC(=O)N1CCC(CNC2CCC(Nc3ncc(Cl)c(-c4c[nH]c5ccccc45)n3)CC2)CC1` (centres unmarked) [compound 197], the 50% inhibitory concentration (IC50) was less than 100 nM at CDK7 and 500 to 5000 nM in the assay on Jurkat cells.
As for `O=C(Nc1cccc(Nc2ncc(Cl)c(-c3c[nH]c4ccccc34)n2)c1)C1CCCNC1` (centres unmarked) [compound 1003], the results for the IC50 on CDK7 and with Jurkat cells were less than 100 nM and 500 to 5000 nM, respectively.

Values taken from patent publication US10106526B2, “Inhibitors of cyclin-dependent kinase 7 (CDK7)” (SYROS PHARMACEUTICALS, INC., priority 2014, dated 2018).
